{"source": "ChEMBL document CHEMBL4304800", "about": "“C4-Phenylthio β-lactams: Effect of the chirality of the β-lactam ring on antimicrobial activity” (2019)", "assay_type_in_all_cases": "functional", "key": {"[1]": {"tested_on": "Moraxella catarrhalis", "experiment": "Bactericidal activity against serine beta-lactamase producing Moraxella catarrhalis incubated in MH broth for 24 to 48 hrs by microbroth dilution method"}, "[2]": {"tested_on": "Mycobacterium tuberculosis", "experiment": "Antitubercular activity against serine beta-lactamase producing Mycobacterium tuberculosis H37Rv after 14 days in presence of middlebrook 7H9/BSA medium by eleven fold serial dilution method", "conditions": "336 h"}, "[3]": {"tested_on": "Mycobacterium tuberculosis", "experiment": "Antitubercular activity against serine beta-lactamase producing Mycobacterium tuberculosis H37Rv after 14 days in presence of GAST/Fe medium by eleven fold serial dilution method", "conditions": "336 h"}}, "data": [{"smiles": "COc1ccc(S[C@H]2CC(=O)N2C(=O)N[C@H](C)c2ccccc2)cc1", "values": [{"measurement": "MBC", "setting": "[1]", "result": 50, "unit": "µg/mL"}, {"measurement": "MIC", "setting": "[1]", "result": 50, "unit": "µg/mL"}, {"measurement": "MIC99", "setting": "[2]", "result": 100, "unit": "µg/mL"}, {"measurement": "MIC99", "setting": "[3]", "result": 25, "unit": "µg/mL"}]}, {"smiles": "C[C@@H](NC(=O)N1C(=O)C[C@@H]1Sc1ccc(C(F)(F)F)cc1)c1ccccc1", "values": [{"measurement": "MBC", "setting": "[1]", "result": 200, "unit": "µg/mL"}, {"measurement": "MIC", "setting": "[1]", "result": 200, "unit": "µg/mL"}, {"measurement": "MIC99", "setting": "[2]", "result": 100, "unit": "µg/mL"}]}, {"smiles": "COc1ccc(S[C@@H]2CC(=O)N2C(=O)N[C@@H](C)c2ccccc2)cc1", "values": [{"measurement": "MBC", "setting": "[1]", "result": 50, "unit": "µg/mL"}, {"measurement": "MIC", "setting": "[1]", "result": 50, "unit": "µg/mL"}, {"measurement": "MIC99", "setting": "[2]", "result": 50, "unit": "µg/mL"}, {"measurement": "MIC99", "setting": "[3]", "result": 25, "unit": "µg/mL"}]}, {"smiles": "C[C@H](NC(=O)N1C(=O)C[C@@H]1Sc1c(F)c(F)c(F)c(F)c1F)c1ccccc1", "values": [{"measurement": "MBC", "setting": "[1]", "result": 6.2, "unit": "µg/mL"}, {"measurement": "MIC", "setting": "[1]", "result": 6.2, "unit": "µg/mL"}, {"measurement": "MIC99", "setting": "[2]", "result": 100, "unit": "µg/mL"}, {"measurement": "MIC99", "setting": "[3]", "result": 0.7, "unit": "µg/mL"}]}, {"smiles": "C[C@@H](NC(=O)N1C(=O)C[C@H]1Sc1ccc(C(F)(F)F)cc1)c1ccccc1", "values": [{"measurement": "MBC", "setting": "[1]", "result": 200, "unit": "µg/mL"}, {"measurement": "MIC", "setting": "[1]", "result": 200, "unit": "µg/mL"}, {"measurement": "MIC99", "setting": "[2]", "result": 100, "unit": "µg/mL"}]}, {"smiles": "CC[C@H]1OC(=O)[C@H](C)[C@@H](O[C@H]2C[C@@](C)(OC)[C@@H](O)[C@H](C)O2)[C@H](C)[C@@H](O[C@@H]2O[C@H](C)C[C@H](N(C)C)[C@H]2O)[C@](C)(O)C[C@@H](C)CN(C)[C@H](C)[C@@H](O)[C@]1(C)O", "note": "[AZITHROMYCIN]", "values": [{"measurement": "MBC", "setting": "[1]", "result": 0.063, "unit": "µg/mL"}, {"measurement": "MIC", "setting": "[1]", "result": 0.125, "unit": "µg/mL"}]}, {"smiles": "C[C@@H](NC(=O)N1C(=O)C[C@H]1Sc1ccccc1F)c1ccccc1", "values": [{"measurement": "MBC", "setting": "[1]", "result": 25, "unit": "µg/mL"}, {"measurement": "MIC", "setting": "[1]", "result": 12.5, "unit": "µg/mL"}, {"measurement": "MIC99", "setting": "[2]", "result": 25, "unit": "µg/mL"}, {"measurement": "MIC99", "setting": "[3]", "result": 12.5, "unit": "µg/mL"}]}, {"smiles": "C[C@@H](NC(=O)N1C(=O)C[C@H]1Sc1ccc(F)cc1)c1ccccc1", "values": [{"measurement": "MBC", "setting": "[1]", "result": 25, "unit": "µg/mL"}, {"measurement": "MIC", "setting": "[1]", "result": 25, "unit": "µg/mL"}, {"measurement": "MIC99", "setting": "[2]", "result": 50, "unit": "µg/mL"}, {"measurement": "MIC99", "setting": "[3]", "result": 25, "unit": "µg/mL"}]}, {"smiles": "COc1ccccc1SC1CC(=O)N1", "note": "(racemic)", "values": [{"measurement": "MIC99", "setting": "[2]", "result": "> 250", "unit": "µg/mL"}]}, {"smiles": "C[C@H](NC(=O)N1C(=O)C[C@@H]1Sc1ccc(F)c(Cl)c1)c1ccccc1", "values": [{"measurement": "MBC", "setting": "[1]", "result": 25, "unit": "µg/mL"}, {"measurement": "MIC", "setting": "[1]", "result": 25, "unit": "µg/mL"}, {"measurement": "MIC99", "setting": "[2]", "result": 25, "unit": "µg/mL"}, {"measurement": "MIC99", "setting": "[3]", "result": 1.5, "unit": "µg/mL"}]}, {"smiles": "O=C1CC([Se]c2ccccc2)N1", "note": "(racemic)", "values": [{"measurement": "MBC", "setting": "[1]", "result": 6.2, "unit": "µg/mL"}, {"measurement": "MIC", "setting": "[1]", "result": 6.2, "unit": "µg/mL"}, {"measurement": "MIC99", "setting": "[2]", "result": 25, "unit": "µg/mL"}]}, {"smiles": "O=C1CC(Sc2ccc(F)c(Cl)c2)N1", "note": "(racemic)", "values": [{"measurement": "MIC99", "setting": "[3]", "result": 0.7, "unit": "µg/mL"}]}, {"smiles": "C[C@@H](NC(=O)N1C(=O)C[C@H]1Sc1ccc(F)c(Cl)c1)c1ccccc1", "values": [{"measurement": "MBC", "setting": "[1]", "result": 25, "unit": "µg/mL"}, {"measurement": "MIC", "setting": "[1]", "result": 25, "unit": "µg/mL"}, {"measurement": "MIC99", "setting": "[2]", "result": 25, "unit": "µg/mL"}, {"measurement": "MIC99", "setting": "[3]", "result": 1.5, "unit": "µg/mL"}]}, {"smiles": "C[C@H](NC(=O)N1C(=O)C[C@@H]1Sc1ccc(F)cc1)c1ccccc1", "values": [{"measurement": "MBC", "setting": "[1]", "result": 50, "unit": "µg/mL"}, {"measurement": "MIC", "setting": "[1]", "result": 25, "unit": "µg/mL"}, {"measurement": "MIC99", "setting": "[2]", "result": 50, "unit": "µg/mL"}, {"measurement": "MIC99", "setting": "[3]", "result": 12.5, "unit": "µg/mL"}]}, {"smiles": "C[C@H](NC(=O)N1C(=O)C[C@H]1Sc1ccc(C(F)(F)F)cc1)c1ccccc1", "values": [{"measurement": "MBC", "setting": "[1]", "result": 200, "unit": "µg/mL"}, {"measurement": "MIC", "setting": "[1]", "result": 200, "unit": "µg/mL"}, {"measurement": "MIC99", "setting": "[2]", "result": 100, "unit": "µg/mL"}]}, {"smiles": "O=C1CC([Se]c2ccccc2)N1C(=O)NCc1ccccc1", "note": "(racemic)", "values": [{"measurement": "MBC", "setting": "[1]", "result": 12.5, "unit": "µg/mL"}, {"measurement": "MIC", "setting": "[1]", "result": 12.5, "unit": "µg/mL"}, {"measurement": "MIC99", "setting": "[2]", "result": 25, "unit": "µg/mL"}]}, {"smiles": "O=C1CC(Sc2ccc(C(F)(F)F)cc2)N1", "note": "(racemic)", "values": [{"measurement": "MIC99", "setting": "[2]", "result": 25, "unit": "µg/mL"}]}, {"smiles": "COc1ccc(SC2CC(=O)N2C(=O)NCc2ccccc2)cc1", "note": "(racemic)", "values": [{"measurement": "MIC99", "setting": "[2]", "result": 125, "unit": "µg/mL"}]}, {"smiles": "O=C1CC(Sc2ccccc2F)N1", "note": "(racemic)", "values": [{"measurement": "MIC99", "setting": "[2]", "result": 100, "unit": "µg/mL"}]}, {"smiles": "O=C1CC(Sc2ccc(F)cc2F)N1", "note": "(racemic)", "values": [{"measurement": "MBC", "setting": "[1]", "result": 3.1, "unit": "µg/mL"}, {"measurement": "MIC99", "setting": "[2]", "result": 3.1, "unit": "µg/mL"}]}, {"smiles": "O=C1CC(Sc2ccc(F)cc2Cl)N1", "note": "(racemic)", "values": [{"measurement": "MIC99", "setting": "[2]", "result": 25, "unit": "µg/mL"}]}, {"smiles": "O=C1CC(Sc2ccc(F)cc2)N1C(=O)NCc1ccccc1", "note": "(racemic)", "values": [{"measurement": "MIC99", "setting": "[2]", "result": 6.2, "unit": "µg/mL"}]}, {"smiles": "COc1ccc(SC2CC(=O)N2)cc1", "note": "(racemic)", "values": [{"measurement": "MBC", "setting": "[1]", "result": 200, "unit": "µg/mL"}, {"measurement": "MIC", "setting": "[1]", "result": "> 200", "unit": "µg/mL"}, {"measurement": "MIC99", "setting": "[2]", "result": 100, "unit": "µg/mL"}]}, {"smiles": "O=C1CC(Sc2ccc(F)cc2F)N1C(=O)NCc1ccccc1", "note": "(racemic)", "values": [{"measurement": "MBC", "setting": "[1]", "result": 1.6, "unit": "µg/mL"}, {"measurement": "MIC", "setting": "[1]", "result": 1.6, "unit": "µg/mL"}, {"measurement": "MIC99", "setting": "[2]", "result": 100, "unit": "µg/mL"}]}, {"smiles": "O=C1CC(Sc2ccc(F)c(Cl)c2)N1C(=O)NCc1ccccc1", "note": "(racemic)", "values": [{"measurement": "MBC", "setting": "[1]", "result": 6.2, "unit": "µg/mL"}, {"measurement": "MIC", "setting": "[1]", "result": 6.2, "unit": "µg/mL"}]}, {"smiles": "O=C1CC(Sc2c(F)c(F)c(F)c(F)c2F)N1", "note": "(racemic)", "values": [{"measurement": "MIC99", "setting": "[2]", "result": "> 100", "unit": "µg/mL"}]}, {"smiles": "O=C1CC(Sc2ccccc2F)N1C(=O)NCc1ccccc1", "note": "(racemic)", "values": [{"measurement": "MIC99", "setting": "[2]", "result": 25, "unit": "µg/mL"}]}, {"smiles": "O=C1CC(Sc2ccc(F)c(F)c2)N1C(=O)NCc1ccccc1", "note": "(racemic)", "values": [{"measurement": "MIC99", "setting": "[2]", "result": 6.2, "unit": "µg/mL"}]}, {"smiles": "O=C1CC(Sc2ccc(F)cc2)N1", "note": "(racemic)", "values": [{"measurement": "MIC99", "setting": "[2]", "result": "> 100", "unit": "µg/mL"}]}, {"smiles": "COc1ccccc1SC1CC(=O)N1C(=O)NCc1ccccc1", "note": "(racemic)", "values": [{"measurement": "MIC99", "setting": "[2]", "result": 188, "unit": "µg/mL"}]}]}
